Experimental data published in ChEMBL document CHEMBL4052667 (Bioorg Med Chem, 2017).

Key:
[1] = test system: MDA-MB-231; assay: Induction of apoptosis in human MDA-MB-231 cells assessed as viable cells at 2.5 uM after 48 hrs by Annexin V-FITC/propidium iodide staining based flow cytometry (reference value: 94.9%); format: functional; settings: MDA-MB-231, 48 h, read-out: Activity
[2] = test system: HCC1937; assay: Antiproliferative activity against human HCC1937 cells after 3 days by MTT assay; format: functional, cell-based; settings: HCC1937, 72 h
[3] = test system: MDA-MB-231; assay: Induction of apoptosis in human MDA-MB-231 cells assessed as necrotic cells at 2.5 uM after 48 hrs by Annexin V-FITC/propidium iodide staining based flow cytometry (reference value: 0.024%); format: functional
[4] = test system: MDA-MB-231; assay: Induction of apoptosis in human MDA-MB-231 cells assessed as late apoptotic cells at 2.5 uM after 48 hrs by Annexin V-FITC/propidium iodide staining based flow cytometry (reference value: 3.82%); format: functional
[5] = test system: MDA-MB-231; assay: Induction of apoptosis in human MDA-MB-231 cells assessed as late apoptotic cells at 10 uM after 48 hrs by Annexin V-FITC/propidium iodide staining based flow cytometry (reference value: 3.82%); format: functional
[6] = test system: MDA-MB-231; assay: Induction of apoptosis in human MDA-MB-231 cells after 48 hrs by Annexin V-FITC/propidium iodide staining based flow cytometry; format: functional, cell-based
[7] = test system: Raji; assay: Antiproliferative activity against human Raji cells after 3 days by MTT assay; format: functional, cell-based; settings: 72 h
[8] = test system: MDA-MB-231; assay: Antiproliferative activity against human MDA-MB-231 cells after 5 days by MTT assay; format: functional, cell-based; settings: MDA-MB-231, 120 h
[9] = test system: MCF-10A; assay: Antiproliferative activity against human MCF10A cells after 72 hrs by MTT assay; format: cell-based
[10] = test system: HeLa; assay: Antiproliferative activity against human HeLa cells after 72 hrs by MTT assay; format: functional, cell-based
[11] = test system: MDA-MB-231; assay: Induction of apoptosis in human MDA-MB-231 cells assessed as necrotic cells at 10 uM after 48 hrs by Annexin V-FITC/propidium iodide staining based flow cytometry (reference value: 0.024%); format: functional
[12] = test system: HCC827; assay: Antiproliferative activity against human HCC827 cells after 72 hrs by MTT assay; format: functional, cell-based; settings: HCC827, 72 h
[13] = test system: MDA-MB-231; assay: Induction of apoptosis in human MDA-MB-231 cells assessed as early apoptotic cells at 5 uM after 48 hrs by Annexin V-FITC/propidium iodide staining based flow cytometry (reference value: 1.27%); format: functional
[14] = test system: K562; assay: Antiproliferative activity against human K562 cells after 72 hrs by MTT assay; format: functional, cell-based; settings: K562, 72 h
[15] = test system: MDA-MB-231; assay: Induction of apoptosis in human MDA-MB-231 cells assessed as late apoptotic cells at 5 uM after 48 hrs by Annexin V-FITC/propidium iodide staining based flow cytometry (reference value: 3.82%); format: functional
[16] = test system: Raji; assay: Potency index, ratio of SAHA IC50 to compound IC50 for human Raji cells; format: functional
[17] = test system: T47D; assay: Antiproliferative activity against human T47D cells after 72 hrs by MTT assay; format: functional, cell-based
[18] = test system: MDA-MB-231; assay: Induction of apoptosis in human MDA-MB-231 cells assessed as early apoptotic cells at 10 uM after 48 hrs by Annexin V-FITC/propidium iodide staining based flow cytometry (reference value: 1.27%); format: functional
[19] = target: T1, Protein deacetylase HDAC6 (Homo sapiens, UniProt Q9UBN7); assay: Inhibition of HDAC6 (unknown origin) using acetylated peptide substrate preincubated for 15 mins followed by substrate addition measured after 60 mins by fluorescence analysis
T1 sequence (Q9UBN7 whole entry): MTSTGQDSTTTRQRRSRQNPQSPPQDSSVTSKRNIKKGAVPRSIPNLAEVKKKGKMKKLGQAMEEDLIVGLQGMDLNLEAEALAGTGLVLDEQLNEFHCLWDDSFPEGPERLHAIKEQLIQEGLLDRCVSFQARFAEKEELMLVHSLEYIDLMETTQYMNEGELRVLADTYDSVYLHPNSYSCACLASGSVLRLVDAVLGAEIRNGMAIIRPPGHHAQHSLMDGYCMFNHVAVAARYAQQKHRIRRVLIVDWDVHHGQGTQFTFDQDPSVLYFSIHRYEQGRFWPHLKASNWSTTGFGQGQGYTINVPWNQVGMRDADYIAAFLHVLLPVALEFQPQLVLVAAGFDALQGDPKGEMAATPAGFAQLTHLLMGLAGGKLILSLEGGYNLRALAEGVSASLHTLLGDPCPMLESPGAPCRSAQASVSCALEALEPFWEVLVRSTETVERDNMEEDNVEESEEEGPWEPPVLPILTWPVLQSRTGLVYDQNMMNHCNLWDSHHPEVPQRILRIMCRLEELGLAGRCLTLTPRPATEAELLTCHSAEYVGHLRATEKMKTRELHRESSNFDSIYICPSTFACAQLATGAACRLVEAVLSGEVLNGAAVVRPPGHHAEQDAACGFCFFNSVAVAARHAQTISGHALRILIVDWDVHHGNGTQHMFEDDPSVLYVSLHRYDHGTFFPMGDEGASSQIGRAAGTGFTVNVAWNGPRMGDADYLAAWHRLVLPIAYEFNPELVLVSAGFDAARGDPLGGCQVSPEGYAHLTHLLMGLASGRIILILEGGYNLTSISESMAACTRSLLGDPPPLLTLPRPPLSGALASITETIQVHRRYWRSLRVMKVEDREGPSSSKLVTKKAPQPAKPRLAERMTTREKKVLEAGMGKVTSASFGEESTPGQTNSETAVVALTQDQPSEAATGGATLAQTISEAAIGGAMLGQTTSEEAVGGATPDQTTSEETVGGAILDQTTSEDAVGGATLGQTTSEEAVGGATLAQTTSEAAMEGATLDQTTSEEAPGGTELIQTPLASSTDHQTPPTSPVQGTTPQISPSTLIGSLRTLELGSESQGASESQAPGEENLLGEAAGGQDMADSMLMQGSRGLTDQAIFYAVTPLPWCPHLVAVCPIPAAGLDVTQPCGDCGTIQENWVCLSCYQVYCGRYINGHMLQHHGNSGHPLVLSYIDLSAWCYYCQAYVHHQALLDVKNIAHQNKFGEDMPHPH

[20] = target: Poly [ADP-ribose] polymerase 2 (Homo sapiens, UniProt Q9UGN5); assay: Inhibition of recombinant human N-terminal GST-tagged PARP2 (2 to 583 residues) expressed in baculovirus infected Sf9 cells using biotinylated substrate after 1 hr by UV/Vis spectrophotometric analysis
Sequence of Poly [ADP-ribose] polymerase 2 (Q9UGN5 whole entry, the tested form may be a part): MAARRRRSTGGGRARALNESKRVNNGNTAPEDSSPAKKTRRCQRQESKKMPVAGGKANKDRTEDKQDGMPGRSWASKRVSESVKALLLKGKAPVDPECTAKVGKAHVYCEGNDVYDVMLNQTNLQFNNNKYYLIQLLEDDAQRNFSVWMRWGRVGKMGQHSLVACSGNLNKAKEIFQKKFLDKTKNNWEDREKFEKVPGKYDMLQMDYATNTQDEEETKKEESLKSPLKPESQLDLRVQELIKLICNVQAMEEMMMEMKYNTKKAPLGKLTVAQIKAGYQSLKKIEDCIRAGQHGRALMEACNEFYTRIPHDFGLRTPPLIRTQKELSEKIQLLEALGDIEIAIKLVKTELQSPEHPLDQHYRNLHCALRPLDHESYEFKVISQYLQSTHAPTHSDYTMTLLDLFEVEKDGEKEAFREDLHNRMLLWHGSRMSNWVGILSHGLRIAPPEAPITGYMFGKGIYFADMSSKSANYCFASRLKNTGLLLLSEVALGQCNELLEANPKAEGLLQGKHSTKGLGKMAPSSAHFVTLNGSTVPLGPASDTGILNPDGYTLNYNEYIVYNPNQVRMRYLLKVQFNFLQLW

[21] = Safety index, ratio of compound IC50 to SAHA IC50 for human MCF10A cells; format: ADME, cell-based, MCF-10A; settings: read-out: Ratio IC50
[22] = target: Histone deacetylase 1 (Homo sapiens, UniProt Q13547); assay: Inhibition of HDAC1 (unknown origin) using acetylated peptide substrate preincubated for 15 mins followed by substrate addition measured after 60 mins by fluorescence analysis
Sequence of Histone deacetylase 1 (Q13547 whole entry): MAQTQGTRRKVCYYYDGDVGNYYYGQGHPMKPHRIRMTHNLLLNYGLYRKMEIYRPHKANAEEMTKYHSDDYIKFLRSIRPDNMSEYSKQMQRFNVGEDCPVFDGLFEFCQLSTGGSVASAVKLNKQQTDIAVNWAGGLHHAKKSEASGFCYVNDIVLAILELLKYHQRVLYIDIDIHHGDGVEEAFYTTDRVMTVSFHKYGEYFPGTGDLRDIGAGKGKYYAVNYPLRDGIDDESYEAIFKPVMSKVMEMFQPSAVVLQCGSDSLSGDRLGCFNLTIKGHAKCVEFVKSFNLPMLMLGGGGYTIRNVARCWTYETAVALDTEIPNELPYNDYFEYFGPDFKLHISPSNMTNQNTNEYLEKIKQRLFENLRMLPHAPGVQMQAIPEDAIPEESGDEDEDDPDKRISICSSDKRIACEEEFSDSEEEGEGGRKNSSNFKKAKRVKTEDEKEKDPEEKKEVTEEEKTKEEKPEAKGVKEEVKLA

[23] = target: Poly [ADP-ribose] polymerase 1 (Homo sapiens, UniProt P09874); assay: Inhibition of recombinant full length human N-terminal GST-tagged PARP1 expressed in baculovirus infected Sf9 cells using biotinylated substrate after 1 hr by UV/Vis spectrophotometric analysis
Sequence of Poly [ADP-ribose] polymerase 1 (P09874 whole entry): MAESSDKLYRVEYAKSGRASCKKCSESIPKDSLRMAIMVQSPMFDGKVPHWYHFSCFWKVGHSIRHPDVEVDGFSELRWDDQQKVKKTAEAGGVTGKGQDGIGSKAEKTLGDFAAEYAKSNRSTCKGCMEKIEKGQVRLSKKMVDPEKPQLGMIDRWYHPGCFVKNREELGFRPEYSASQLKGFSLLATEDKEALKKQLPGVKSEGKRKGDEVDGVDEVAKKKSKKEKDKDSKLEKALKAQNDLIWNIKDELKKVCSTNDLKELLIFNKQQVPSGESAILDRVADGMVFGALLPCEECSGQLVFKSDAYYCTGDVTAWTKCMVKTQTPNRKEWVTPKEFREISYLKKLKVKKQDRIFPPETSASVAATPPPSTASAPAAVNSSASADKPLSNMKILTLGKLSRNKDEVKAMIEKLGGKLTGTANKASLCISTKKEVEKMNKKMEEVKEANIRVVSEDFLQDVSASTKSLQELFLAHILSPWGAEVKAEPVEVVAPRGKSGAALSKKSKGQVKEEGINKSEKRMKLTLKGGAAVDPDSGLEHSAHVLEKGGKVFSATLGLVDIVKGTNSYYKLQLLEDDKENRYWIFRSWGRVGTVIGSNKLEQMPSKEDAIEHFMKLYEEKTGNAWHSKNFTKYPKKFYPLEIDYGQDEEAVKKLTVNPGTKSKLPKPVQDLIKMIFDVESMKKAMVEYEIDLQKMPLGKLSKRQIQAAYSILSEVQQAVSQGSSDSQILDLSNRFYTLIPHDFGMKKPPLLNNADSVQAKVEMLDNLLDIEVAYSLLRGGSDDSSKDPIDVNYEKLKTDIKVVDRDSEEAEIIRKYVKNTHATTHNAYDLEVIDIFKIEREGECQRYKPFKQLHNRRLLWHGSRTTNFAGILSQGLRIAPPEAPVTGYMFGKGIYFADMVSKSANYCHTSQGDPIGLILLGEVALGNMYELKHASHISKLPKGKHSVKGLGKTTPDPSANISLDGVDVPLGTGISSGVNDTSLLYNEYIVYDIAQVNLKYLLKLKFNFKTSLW

[24] = test system: MDA-MB-231; assay: Induction of apoptosis in human MDA-MB-231 cells assessed as viable cells at 5 uM after 48 hrs by Annexin V-FITC/propidium iodide staining based flow cytometry (reference value: 94.9%); format: functional; settings: MDA-MB-231, 48 h, read-out: Activity
[25] = test system: MDA-MB-231; assay: Induction of apoptosis in human MDA-MB-231 cells assessed as necrotic cells at 5 uM after 48 hrs by Annexin V-FITC/propidium iodide staining based flow cytometry (reference value: 0.024%); format: functional
[26] = test system: MDA-MB-231; assay: Induction of apoptosis in human MDA-MB-231 cells assessed as early apoptotic cells at 2.5 uM after 48 hrs by Annexin V-FITC/propidium iodide staining based flow cytometry (reference value: 1.27%); format: functional
[27] = test system: MCF7; assay: Antiproliferative activity against human MCF7 cells after 72 hrs by MTT assay; format: functional, cell-based; settings: MCF7, 72 h
[28] = test system: U-937; assay: Antiproliferative activity against human U937 cells after 72 hrs by MTT assay; format: functional, cell-based; settings: U-937, 72 h
[29] = test system: MDA-MB-231; assay: Induction of apoptosis in human MDA-MB-231 cells assessed as viable cells at 10 uM after 48 hrs by Annexin V-FITC/propidium iodide staining based flow cytometry (reference value: 94.9%); format: functional; settings: MDA-MB-231, 48 h, read-out: Activity
[30] = test system: MDA-MB-231; assay: Antiproliferative activity against human MDA-MB-231 cells after 72 hrs by MTT assay; format: functional, cell-based; settings: MDA-MB-231, 72 h
[31] = Antiproliferative activity against human MCF10A cells at less than 50 uM after 72 hrs by MTT assay relative to control; format: cell-based, MCF-10A
[32] = organism: Homo sapiens; assay: Selectivity ratio of IC50 for HDAC1 (unknown origin) to IC50 for HDAC6 (unknown origin)

Row | SMILES | IC50 [8] [µM] | IC50 [9] [µM] | IC50 [10] [µM] | IC50 [12] [µM] | IC50 [14] [µM] | IC50 [17] [µM] | IC50 [19] [µM] | IC50 [20] [µM] | IC50 [22] [µM] | IC50 [23] [µM] | IC50 [27] [µM] | IC50 [28] [µM] | IC50 [30] [µM] | inhibition at 72 h [31] [%] | further results
1 | O=C(/C=C/c1ccc(CN2CCN(C(=O)c3cc(Cc4n[nH]c(=O)c5ccccc45)ccc3F)CC2)cc1)NO | 0.94 | 17.4 | 6.49 | 2.96 | 7.58 | 4.85 | 0.0102 | 0.00253 | 0.0382 | 0.015 | 8.08 | 3.88 | 2.68 | – | viability at 2.5 µM [1]: 88.1%; IC50 [2]: 0.45 µM; Activity [3]: 0.34%; Activity [4]: 5.56%; Activity [5]: 40.8%; Activity [6]: Dose-dependent effect; IC50 [7]: 0.81 µM; Activity [11]: 1.77%; Activity [13]: 11.9%; Activity [15]: 7.2%; Ratio IC50 [16]: 12; Activity [18]: 35.2%; selectivity ratio [21]: 8.2; viability at 5 µM [24]: 80.2%; Activity [25]: 0.634%; Activity [26]: 6.01%; viability at 10 µM [29]: 22.3%
2 | O=C(Cc1ccc(CN2CCN(C(=O)c3cc(Cc4n[nH]c(=O)c5ccccc45)ccc3F)CC2)cc1)NO | 35.4 | > 50 | > 50 | 32.1 | > 50 | > 50 | 0.129 | 0.0491 | 0.912 | 0.0204 | 41.8 | 31 | 57.9 | 20 to 30 | –
3 | O=C(NO)c1ccc(CN2CCN(C(=O)c3cc(Cc4n[nH]c(=O)c5ccccc45)ccc3F)CC2)cc1 | 18.3 | > 50 | > 50 | 24.1 | 43.3 | > 50 | 0.0167 | 0.0315 | 0.503 | 0.00616 | 24.1 | 20.5 | 33.2 | 20 to 30 | Ratio IC50 [32]: 30
